Our source for the EC50 and inhibition values is patent US10329309B2, “3-(3H-imidazo[4,5-B]pyridin-2-yl)-1H-pyrazolo[4,3-B]pyridines and therapeutic uses thereof” (Samumed, LLC, priority 2015, dated 2019).

Type in all cases: cell-based
Experiment [1] has as its system IL-6 (THP-1 cells). The experiment in a line: Inhibition of IL-6 in LPS-stimulated THP-1 monocytes (HTRF). The note with it: Homo sapiens; for EC50: LPS 500 ng/mL, IL-6 by HTRF; for inhibition at 10 µM: LPS stimulated, IL-6, at 10 μM, read-out: percent inhibition at 10 μM (given for EC50 of >10 μM). Summed up:
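IL-6 release was read as the HTRF 665/620 nm ratio after 22 h of 500 ng/mL LPS at 37 °C. Before stimulation, THP-1 cells kept 24 h in 1% FBS were exposed 2 h to a 10-point 1:3 compound series starting at 10 μM, in 0.1% DMSO. Four-parameter EC50s came from DMSO-normalized duplicates, with % inhibition at 10 μM reported beyond 10 μM.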
Background: TR-FRET usually uses a lanthanide donor and a delayed reading to cut background.

The subject of experiment [2] is SW480 colon cancer cells. The experiment is described as follows: Cell viability assay (CellTiter-Blue), four days. The following applies: Homo sapiens, 96 h; for EC50: CellTiter-Blue cell viability. Summed up: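 4-day exposure, 37 °C/5% CO2; ~2×10^3 SW480 cells/well; 8-pt 1:3 curve, 10–0.0045 μM, duplicates vs DMSO controls. Resazurin→resorufin fluorescence readout, ~3 h. EC50 by nonlinear fit; if >10 μM, % inhibition at 10 μM reported.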
(Alamar Blue is a resazurin reagent that responds to reducing activity.)

Experiment [3] deals with Wnt activity (Sp5-Luc reporter, SW480 colon carcinoma cells). The experiment is described as follows: Screening assay for Wnt activity: Sp5-Luc reporter gene assay in SW480 cells. The following applies: Homo sapiens, overnight incubation, 10-point dose-response from 10 μM. In a few lines:
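Luminescence (BrightGlo) read after overnight 37 °C exposure of Sp5-Luc SW480 reporter cells, 4,000/well in 1% FBS, to compound dosed 1:3 over 10 points from 10 μM with 0.1% DMSO. Values normalized to DMSO-only cells, fitted with variable-slope four-parameter model; where EC50 exceeds 10 μM, % inhibition at 10 μM reported.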
(In a reporter assay the amount or activity of a reporter protein is the signal.)

Some results are limits rather than exact numbers.

For the compound `Clc1ccc(-c2ccnc3[nH]c(-c4n[nH]c5ccc(-c6cncc(CN7CCCC7)c6)nc45)nc23)s1` [Compound 1049, 3-(7-(5-chlorothiophen-2-yl)-3H-imidazo[4,5-b]pyridin-2-yl)-5-(5-(pyrrolidin-1-ylmethyl)pyridin-3-yl)-1H-pyrazolo[4,3-b]pyridine], the figures for the EC50 in experiment [1], in experiment [2] and in experiment [3] were above 10000 nM, 2750 nM and 7700 nM, respectively. Also, the inhibition (as a rule, the percentage by which the read-out fell short of the control) at 10 µM in experiment [1] turned out to be 36.2%.

`O=C(Nc1cncc(-c2ccc3[nH]nc(-c4nc5c(-c6ccc(Cl)s6)ccnc5[nH]4)c3n2)c1)C1CCC1` [Compound 1056, N-(5-(3-(7-(5-chlorothiophen-2-yl)-3H-imidazo[4,5-b]pyridin-2-yl)-1H-pyrazolo [4,3-b]pyridin-5-yl)pyridin-3-yl)cyclobutanecarboxamide]: the EC50 (as a rule, the midpoint of the concentration-response curve) in experiment [1] is above 10000 nM; in experiment [2] it was 109 nM; in experiment [3], 354 nM. Further, in experiment [1], the inhibition at 10 µM was 40.6%.

Turning to `NC1CN(c2cncc(-c3ccc4[nH]nc(-c5nc6c(-c7ccc(Cl)s7)ccnc6[nH]5)c4n3)n2)C1` [Compound 1068, 1-(6-(3-(7-(5-Chlorothiophen-2-yl)-3H-imidazo[4,5-b]pyridin-2-yl)-1H-pyrazolo[4,3-b]pyridin-5-yl)pyrazin-2-yl)azetidin-3-amine], the EC50 in experiment [1] is 1770 nM; in experiment [2], above 10000 nM; in experiment [3] it was 2300 nM. In addition, the inhibition at 10 µM in experiment [2] (at 10 μM, read-out: percent inhibition at 10 μM (given for EC50 of >10 μM)) is 17.8%.
